Among the data in ChEMBL document CHEMBL1154512, “PA-824 kills nonreplicating Mycobacterium tuberculosis by intracellular NO release” (2008) are Activity values, retold here.

The experiment deals with Mycobacterium tuberculosis. The experiment can be described thus: Bactericidal activity against Mycobacterium tuberculosis prcAB/tetR mutant after 3 days under anaerobic condition by serial dilution method. Type of experiment: functional, organism-based.

SMILES strings stand for the structures. Activity calls are given as the source filed them. No cut-off for these calls is given here.

As for `O=[N+]([O-])c1cn2c(n1)OC[C@@H](OCc1ccc(OC(F)(F)F)cc1)C2` [PRETOMANID], the result was Active.
